Columns and labels:
Assay in all cases: Test C pre/postemergence
Format in all cases: in vivo
[1] = system: common (oilseed) sunflower (Helianthus annuus); conditions: Preemergence
Method in brief: (§1)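 Percent control is a visual rating (0 none, 100 complete) taken against untreated plants after 12 to 14 days of greenhouse growth. Applications were made preemergence to seeded pots and postemergence to plants at the 1- to 4-leaf stage, in a non-phytotoxic surfactant-containing solvent.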

[2] = system: Surinam grass (Brachiaria decumbens); conditions: for Surinam Grass plant response rating: scale 0 to 100 (0 no effect, 100 complete control); for Plant response rating, Surinam Grass: scale 0 to 100
Method in brief: as §1

[3] = system: giant foxtail (Setaria faberii); conditions: for Foxtail, Giant plant response rating: scale 0 to 100 (0 no effect, 100 complete control)
Method in brief: as §1

[4] = system: johnsongrass (Sorghum halepense); conditions: for Johnsongrass plant response rating: scale 0 to 100 (0 no effect, 100 complete control)
Method in brief: as §1

soybean (Glycine max) = conditions: for Soybean plant response rating: scale 0 to 100 (0 no effect, 100 complete control)
Method in brief: as §1

kochia (Kochia scoparia) = conditions: for Kochia plant response rating: scale 0 to 100 (0 no effect, 100 complete control)
Method in brief: as §1

[5] = system: woolly cupgrass (Eriochloa villosa); conditions: for Cupgrass, Woolly plant response rating: scale 0 to 100 (0 no effect, 100 complete control)
Method in brief: as §1

[6] = system: goosegrass (Eleusine indica); conditions: for Goosegrass plant response rating: scale 0 to 100 (0 no effect, 100 complete control)
Method in brief: as §1

[7] = system: pigweed (Amaranthus retroflexus); conditions: for Pigweed plant response rating: scale 0 to 100 (0 no effect, 100 complete control)
Method in brief: as §1

[8] = system: crabgrass (Digitaria sanguinalis); conditions: for Crabgrass plant response rating: scale 0 to 100 (0 no effect, 100 complete control)
Method in brief: as §1

[9] = system: bermudagrass (Cynodon dactylon)
Method in brief: as §1

[10] = system: morningglory (Ipomoea coccinea); conditions: for Morningglory plant response rating: scale 0 to 100 (0 no effect, 100 complete control)
Method in brief: as §1

[11] = Postemergence, 250 g ai/ha, scale 0 to 100
[12] = Postemergence, 500 g ai/ha, scale 0 to 100
[13] = Preemergence, 62 g ai/ha, scale 0 to 100, 0 no effect, 100 complete control
[14] = Preemergence, 125 g ai/ha, scale 0 to 100
[15] = Preemergence, 250 g ai/ha, scale 0 to 100
[16] = Preemergence, 500 g ai/ha, scale 0 to 100

COC(=O)CNc1nc(C2CC2)nc(C(=O)OC)c1Br [Compound 10]
Plant response rating, Sunflower ([1]; 62 g ai/ha, scale 0 to 100, 0 no effect, 100 complete control): 0 | Plant response rating, Sunflower ([1]; 125 g ai/ha, scale 0 to 100): 0 | Plant response rating, Sunflower ([1]; 250 g ai/ha, scale 0 to 100): 0 | Plant response rating, Sunflower ([1]; 500 g ai/ha, scale 0 to 100): 0 | Surinam Grass plant response rating ([2]; Postemergence, 62 g ai/ha): 0 | Surinam Grass plant response rating ([2]; Postemergence, 125 g ai/ha): 0 | Plant response rating, Surinam Grass ([2]; Postemergence, 250 g ai/ha): 0 | Plant response rating, Surinam Grass ([2]; Postemergence, 500 g ai/ha): 0 | Plant response rating, Surinam Grass ([2]; Preemergence, 125 g ai/ha): 0 | Plant response rating, Surinam Grass ([2]; Preemergence, 250 g ai/ha): 0 | Plant response rating, Surinam Grass ([2]; Preemergence, 500 g ai/ha): 0 | Foxtail, Giant plant response rating ([3]; Postemergence, 62 g ai/ha): 0 | Foxtail, Giant plant response rating ([3]; Postemergence, 125 g ai/ha): 0 | Plant response rating, Foxtail, Giant [3, 11]: 0 | Plant response rating, Foxtail, Giant [3, 12]: 0 | Plant response rating, Foxtail, Giant [3, 13]: 0 | Plant response rating, Foxtail, Giant [3, 14]: 0 | Plant response rating, Foxtail, Giant [3, 15]: 0 | Plant response rating, Foxtail, Giant [3, 16]: 0 | Johnsongrass plant response rating ([4]; Postemergence, 62 g ai/ha): 0 | Johnsongrass plant response rating ([4]; Postemergence, 125 g ai/ha): 0 | Plant response rating, Johnsongrass [4, 11]: 0 | Plant response rating, Johnsongrass [4, 12]: 0 | Plant response rating, Johnsongrass [4, 13]: 0 | Plant response rating, Johnsongrass [4, 14]: 0 | Plant response rating, Johnsongrass [4, 15]: 0 | Plant response rating, Johnsongrass [4, 16]: 0 | Soybean plant response rating (soybean (Glycine max); Postemergence, 62 g ai/ha): 70 | Soybean plant response rating (soybean (Glycine max); Postemergence, 125 g ai/ha): 80 | Plant response rating, Soybean (soybean (Glycine max); [11]): 90 | Plant response rating, Soybean (soybean (Glycine max); [12]): 100 | Plant response rating, Soybean (soybean (Glycine max); [13]): 0 | Kochia plant response rating (kochia (Kochia scoparia); Postemergence, 62 g ai/ha): 80 | Kochia plant response rating (kochia (Kochia scoparia); Postemergence, 125 g ai/ha): 90 | Plant response rating, Kochia (kochia (Kochia scoparia); [11]): 95 | Plant response rating, Kochia (kochia (Kochia scoparia); [12]): 100 | Plant response rating, Kochia (kochia (Kochia scoparia); [13]): 0 | Plant response rating, Kochia (kochia (Kochia scoparia); [14]): 0 | Plant response rating, Kochia (kochia (Kochia scoparia); [15]): 45 | Plant response rating, Kochia (kochia (Kochia scoparia); [16]): 65 | Cupgrass, Woolly plant response rating ([5]; Postemergence, 62 g ai/ha): 0 | Cupgrass, Woolly plant response rating ([5]; Postemergence, 125 g ai/ha): 0 | Plant response rating, Cupgrass, Woolly [5, 11]: 0 | Plant response rating, Cupgrass, Woolly [5, 12]: 0 | Plant response rating, Cupgrass, Woolly [5, 13]: 0 | Plant response rating, Cupgrass, Woolly [5, 14]: 0 | Plant response rating, Cupgrass, Woolly [5, 15]: 0 | Plant response rating, Cupgrass, Woolly [5, 16]: 0 | Goosegrass plant response rating ([6]; Postemergence, 62 g ai/ha): 0 | Goosegrass plant response rating ([6]; Postemergence, 125 g ai/ha): 0 | Plant response rating, Goosegrass [6, 11]: 0 | Plant response rating, Goosegrass [6, 12]: 0 | Plant response rating, Goosegrass [6, 13]: 0 | Plant response rating, Goosegrass [6, 14]: 0 | Plant response rating, Goosegrass [6, 15]: 0 | Plant response rating, Goosegrass [6, 16]: 0 | Pigweed plant response rating ([7]; Postemergence, 62 g ai/ha): 65 | Pigweed plant response rating ([7]; Postemergence, 125 g ai/ha): 80 | Plant response rating, Pigweed [7, 11]: 95 | Plant response rating, Pigweed [7, 12]: 95 | Plant response rating, Pigweed [7, 13]: 20 | Plant response rating, Pigweed [7, 14]: 55 | Plant response rating, Pigweed [7, 15]: 70 | Plant response rating, Pigweed [7, 16]: 85 | Crabgrass plant response rating ([8]; Postemergence, 62 g ai/ha): 0 | Crabgrass plant response rating ([8]; Postemergence, 125 g ai/ha): 0 | Plant response rating, Crabgrass [8, 11]: 0 | Plant response rating, Crabgrass [8, 12]: 0 | Plant response rating, Crabgrass [8, 13]: 0 | Plant response rating, Crabgrass [8, 14]: 0 | Plant response rating, Crabgrass [8, 15]: 0 | Plant response rating, Crabgrass [8, 16]: 0 | Bermudagrass plant response rating ([9]; Postemergence, 62 g ai/ha, scale 0 to 100 (0 no effect, 100 complete control)): 0 | Plant response rating, Bermudagrass [9, 11]: 0 | Plant response rating, Bermudagrass [9, 12]: 0 | Plant response rating, Bermudagrass ([9]; Postemergence, 125 g ai/ha, scale 0 to 100): 0 | Plant response rating, Bermudagrass [9, 13]: 0 | Plant response rating, Bermudagrass [9, 14]: 0 | Plant response rating, Bermudagrass [9, 15]: 0 | Plant response rating, Bermudagrass [9, 16]: 0 | Morningglory plant response rating ([10]; Postemergence, 62 g ai/ha): 70 | Morningglory plant response rating ([10]; Postemergence, 125 g ai/ha): 85 | Plant response rating, Morningglory [10, 11]: 95 | Plant response rating, Morningglory [10, 12]: 95 | Plant response rating, Morningglory [10, 13]: 0 | Plant response rating, Morningglory [10, 14]: 0 | Plant response rating, Morningglory [10, 15]: 0 | Plant response rating, Morningglory [10, 16]: 100
